# Target: T1, hNLRP3 (Homo sapiens, UniProt Q96P20)
# T1 construct: THP-1 cells were purchased from the American Type Culture Collection; host or cells: THP-1 cells, PMA-differentiated
# Experiment: Measurement of IL-1β production in PMA-differentiated THP-1 cells (hNLRP3 agonist; ELISA, alternative and hTRF procedures)
# Assay type: cell-based
# Method: Measurement of IL-1β production in PMA-differentiated THP-1 cells THP-1 cells were purchased from the American Type Culture Collection and sub-cultured according to instructions from the supplier. Prior to experiments, cells were cultured in RPMI 1640 containing 10% heat inactivated FBS, penicillin (100 units/ml) and streptomycin (100 μg/ml), and maintained in log phase prior to experimental setup. Prior to the experiment THP-1 were treated with PMA (Phorbol 12-myristate 13-acetate) ([…]) for 24 hours. The day of the experiment the media was removed and attaching cells were treated with trypsin for 2 minutes, cells were then collected, washed with PBS (phosphate buffer saline), spin down, resuspended in 2% heat inactivated FBS with RPMI at a concentration of 1×10^6 cells/ml, and 100 μl was plated in a 96 well plate. Compounds were dissolved in dimethyl sulfoxide (DMSO) and added to the culture medium to achieve desired concentration (e.g. 100, 30, 10, 3, 1, 0.3 or 0.1 μM). Cells were incubated with compounds for 4 hours. Cell free supernatant was collected and the production of […] was evaluated by ELISA. A vehicle only control was run concurrently with each experiment. Final DMSO concentration was 1%.
# Measurement of IL-1β Production in PMA-Differentiated THP-1 Cells (Alternative Procedure)
# THP-1 cells were purchased from the American Type Culture Collection and sub-cultured according to instructions from the supplier. Prior to experiments, cells were cultured in RPMI 1640 containing 10% heat inactivated FBS, penicillin (100 units/ml), streptomycin (100 μg/ml), HEPES (10 mM) and sodium pyruvate (1 mM) and maintained in log phase prior to experimental setup. Prior to the experiment, THP-1 cells were treated with PMA (Phorbol 12-myristate 13-acetate) (20 μg/ml) overnight. The day of the experiment, the media was removed and attached cells were treated with trypsin for 2 minutes, cells were then collected, washed with PBS (phosphate buffer saline), pelleted by centrifugation and resuspended in 2% heat inactivated FBS with RPMI at a concentration of 50,000 cells/well in a 384 well plate. Cell free supernatant was collected and the production of IL-1β was evaluated by ELISA. Compounds were dissolved in dimethyl sulfoxide (DMSO) and added to the culture medium to achieve desired concentration (e.g. 100, 30, 10, 3, 1, 0.3 or 0.1 μM). Cells were incubated with compounds for 2 hours. A vehicle only control was run concurrently with each experiment. Final DMSO concentration was 1%.
# Measurement of IL-1β Production—hTRF Protocol (Second Alternative Procedure)
# Serial dilutions of compounds in DMSO were added to low volume 384 well plates at 100 nl/well using an ECHO 550 acoustic dispenser (Labcyte) to achieve final starting concentration of 10 μM in assay.
# THP-1 cells in RPMI (Gibco, 11875) media with 10% FBS at a density of 1×10^6 cell/ml in a T175 flask were treated with a final concentration of phorbol 12-myristate 13-acetate (PMA) (Sigma, P1585) of 50 ng/ml overnight at 37° C. at 5% CO2 for differentiation. Cells were harvested the next day after rinsing well with dPBS using 0.5% trypsin. A cell solution was prepared of 1×10^6 cells/ml for 50,000 cells in 50 μl/well in RPMI media with 2% FBS. Cells were plated using a multichannel pipette onto the compound dilutions in Greiner, 384 well, black clear bottom tissue culture treated plates (781090). The plates were incubated in 37° C. incubator at 5% CO2 for 2 hours.
# After the 2 hour incubation, the cell plates were spun in the centrifuge for 5 minutes at 1200 rpm. Using the Felix (CyBio), 8 μl of the supernatant was transferred to 384 well, low volume, white proxy plates. (Perkin Elmer, 6008230). A human IL1beta hTRF kit was used to analyze the supernatant (CISBIO, 62HIL1BPEG). The kit instructions were followed for preparing the IL1Beta standard curve and then the antibodies from the kit were diluted 1:40 rather than 1:20 as kit instructed.
# T1 sequence (Q96P20 whole entry): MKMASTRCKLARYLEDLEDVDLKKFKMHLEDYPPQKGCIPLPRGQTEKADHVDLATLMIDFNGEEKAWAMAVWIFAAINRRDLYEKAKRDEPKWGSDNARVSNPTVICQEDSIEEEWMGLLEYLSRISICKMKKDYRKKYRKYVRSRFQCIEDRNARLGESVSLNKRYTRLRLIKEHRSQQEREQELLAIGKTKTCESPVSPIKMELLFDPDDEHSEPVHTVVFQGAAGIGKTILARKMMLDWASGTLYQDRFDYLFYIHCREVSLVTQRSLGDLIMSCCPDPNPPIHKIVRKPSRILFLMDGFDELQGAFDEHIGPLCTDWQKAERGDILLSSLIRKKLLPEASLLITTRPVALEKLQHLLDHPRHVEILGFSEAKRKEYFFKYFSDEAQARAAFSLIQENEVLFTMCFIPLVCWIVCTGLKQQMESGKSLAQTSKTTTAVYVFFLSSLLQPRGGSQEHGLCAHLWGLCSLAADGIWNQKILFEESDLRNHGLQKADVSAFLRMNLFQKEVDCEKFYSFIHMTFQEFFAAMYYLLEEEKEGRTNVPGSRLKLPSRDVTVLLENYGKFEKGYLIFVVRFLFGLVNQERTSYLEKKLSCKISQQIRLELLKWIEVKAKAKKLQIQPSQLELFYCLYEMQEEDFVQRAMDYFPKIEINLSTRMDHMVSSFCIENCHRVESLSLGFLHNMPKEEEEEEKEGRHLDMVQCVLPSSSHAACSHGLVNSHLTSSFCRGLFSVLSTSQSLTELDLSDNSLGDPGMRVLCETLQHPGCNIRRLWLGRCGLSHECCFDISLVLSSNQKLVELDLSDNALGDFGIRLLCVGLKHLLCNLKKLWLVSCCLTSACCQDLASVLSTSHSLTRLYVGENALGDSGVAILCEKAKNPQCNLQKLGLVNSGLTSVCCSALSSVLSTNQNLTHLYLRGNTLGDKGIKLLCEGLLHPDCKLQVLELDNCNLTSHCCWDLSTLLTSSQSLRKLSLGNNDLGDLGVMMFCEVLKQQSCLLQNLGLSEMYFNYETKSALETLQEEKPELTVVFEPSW
row,EC50,SMILES
1,0.52 µM,Nc1nc2cc(-n3cccn3)ccc2c2[nH]c(CN3CC(c4ccccc4)CC3=O)nc12 (centres unmarked) [Compound 103]
2,0.6 µM,CCN(Cc1nc2c(N)nc3cc(C)ccc3c2[nH]1)C(C)=O [Compound 104]
3,0.7 µM,"CCNCc1nc2c(N)nc3cc(-c4cc[nH]n4)ccc3c2n1C [Compound 106, 2-((Ethylamino)methyl)-1-methyl-7-(1H-pyrazol-3-yl)-1H-imidazo[4,5-c]quinolin-4-amine]"
4,0.87 µM,"CCN(Cc1nc2c(N)nc3cc(-n4cccn4)ccc3c2[nH]1)S(C)(=O)=O [Compound 108, N-((4-Amino-7-(1H-pyrazol-1-yl)-1H-imidazo[4,5-c]quinolin-2-yl)methyl)-N-ethylmethanesulfonamide]"
5,0.88 µM,"CCN(Cc1nc2c(N)nc3cc(-c4cc[nH]n4)ccc3c2[nH]1)C(=O)OC(C)(C)C [Compound 109, tert-Butyl ((4-amino-7-(1H-pyrazol-3-yl)-1H-imidazo[4,5-c]quinolin-2-yl)methyl)(ethyl)carbamate]"
6,0.9 µM,"CCN(Cc1nc2c(N)nc3cc(-c4cc[nH]n4)ccc3c2[nH]1)C(=O)N(C)C [Compound 110, 1-((4-Amino-7-(1H-pyrazol-3-yl)-1H-imidazo[4,5-c]quinolin-2-yl)methyl)-1-ethyl-3,3-dimethylurea]"
7,48.4 µM,Nc1nc2cc(C(F)(F)F)ccc2c2[nH]c(CN3CCCC3=O)nc12 [Compound 163]
8,4.6 µM,CCN(Cc1nc2c(N)nc3ccccc3c2n1CCCC(=O)OC)C(C)=O [Compound 164]
9,0.19 µM,"CCN(Cc1nc2c(N)nc3cc(-c4ccccc4)ccc3c2[nH]1)C(C)=O [Compound 165, N-[(4-amino-7-phenyl-1H-imidazo[4,5-c]quinolin-2-yl)methyl]-N-ethylacetamide]"
10,3.4 µM,"CCN(Cc1nc2c(N)nc3cc(-c4cccnc4)ccc3c2[nH]1)C(C)=O [Compound 166, N-[(4-amino-7-pyridin-3-yl-1H-imidazo[4,5-c]quinolin-2-yl)methyl]-N-ethylacetamide]"
11,58 µM,"CCN(Cc1nc2c(N)nc3cc(-c4ccncc4)ccc3c2[nH]1)C(C)=O [Compound 167, N-[(4-amino-7-pyridin-4-yl-1H-imidazo[4,5-c]quinolin-2-yl)methyl]-N-ethylacetamide]"
12,101 µM,"CCN(Cc1nc2c(N)nc3cc(-c4cc(C)nn4C)ccc3c2[nH]1)C(C)=O [Compound 168, N-[[4-amino-7-(2,5-dimethylpyrazol-3-yl)-1H-imidazo[4,5-c]quinolin-2-yl]methyl]-N-ethylacetamide]"
13,92 µM,"CCCn1cc(-c2ccc3c(c2)nc(N)c2nc(CN(CC)C(C)=O)[nH]c23)cn1 [Compound 169, N-[[4-amino-7-(1-propylpyrazol-4-yl)-1H-imidazo[4,5-c]quinolin-2-yl]methyl]-N-ethylacetamide]"
14,7.9 µM,"CCN(Cc1nc2c(N)nc3cc(C(C)C)ccc3c2[nH]1)C(C)=O [Compound 170, N-[(4-amino-7-propan-2-yl-1H-imidazo[4,5-c]quinolin-2-yl)methyl]-N-ethylacetamide]"
15,3.2 µM,"CCc1ccc2c(c1)nc(N)c1nc(CN(CC)C(C)=O)[nH]c12 [Compound 171, N-[(4-amino-7-ethyl-1H-imidazo[4,5-c]quinolin-2-yl)methyl]-N-ethylacetamide]"
16,2.1 µM,"CCCc1ccc2c(c1)nc(N)c1nc(CN(CC)C(C)=O)[nH]c12 [Compound 172, N-[(4-amino-7-propyl-1H-imidazo[4,5-c]quinolin-2-yl)methyl]-N-ethylacetamide]"
17,0.84 µM,"CCN(Cc1nc2c(N)nc3cc(C4CCCC4)ccc3c2[nH]1)C(C)=O [Compound 173, N-[(4-amino-7-cyclopentyl-1H-imidazo[4,5-c]quinolin-2-yl)methyl]-N-ethylacetamide]"
18,2.6 µM,"CCN(Cc1nc2c(N)nc3cc(-c4cccnc4F)ccc3c2[nH]1)C(C)=O [Compound 175, N-[[4-amino-7-(2-fluoropyridin-3-yl)-1H-imidazo[4,5-c]quinolin-2-yl]methyl]-N-ethylacetamide]"
19,25.7 µM,CCN(Cc1nc2c(N)nc3ccccc3c2[nH]1)C(C)=O [Compound 176]
20,7.4 µM,CCN(Cc1nc2c(N)nc3cc(Br)ccc3c2[nH]1)C(C)=O [Compound 177]
21,12.5 µM,"CCN(Cc1nc2c(N)nc3cc(Cl)ccc3c2[nH]1)C(C)=O [Compound 179, N-[(4-amino-7-chloro-1H-imidazo[4,5-c]quinolin-2-yl)methyl]-N-ethylacetamide]"
22,1.5 µM,"CCN(Cc1nc2c(N)nc3cc(-n4cccn4)ccc3c2[nH]1)C(C)=O [Compound 180, N-[(4-amino-7-pyrazol-1-yl-1H-imidazo[4,5-c]quinolin-2-yl)methyl]-N-ethylacetamide]"

row,EC50,SMILES
1,0.52 µM,CCN(Cc1nc2c(N)nc3cc(C4=CCCC4)ccc3c2[nH]1)C(C)=O [Compound 183]
2,64 µM,CC(=O)N(C)Cc1nc2c(N)nc3ccccc3c2[nH]1 [Compound 187]
3,5.7 µM,COC(=O)CCCn1c(CN(C)C(C)=O)nc2c(N)nc3ccccc3c21 [Compound 188]
4,10.3 µM,CCN(Cc1nc2c(N)nc3cc(C4CC4)ccc3c2n1Cc1ccc(OC)cc1)C(C)=O [Compound 190]
5,65 µM,CCN(Cc1nc2c(N)nc3ccccc3c2n1CCCNC(=O)OC(C)(C)C)C(C)=O [Compound 191]
6,7.9 µM,CCN(Cc1nc2c(N)nc3ccc(Br)cc3c2[nH]1)C(C)=O [Compound 194]
7,32.7 µM,CCN(Cc1nc2c(N)nc3cc(N4CCNC4=O)ccc3c2n1Cc1ccc(OC)cc1)C(C)=O [Compound 196]
8,13.7 µM,CCN(Cc1nc2c(N)nc3ccc(Cl)cc3c2[nH]1)C(C)=O [Compound 197]
9,24.2 µM,CCOC(=O)c1cc2c(cc1Br)nc(N)c1nc(CN(CC)C(C)=O)[nH]c12 [Compound 198]
10,11.9 µM,CCN(Cc1nc2c(N)nc3ccc(Br)cc3c2[nH]1)C(=O)OC [Compound 200]
11,20.8 µM,CCN(Cc1nc2c(N)nc3ccc(Br)cc3c2[nH]1)S(C)(=O)=O [Compound 201]
12,35.9 µM,CCN(Cc1nc2c(N)nc3ccc(Br)cc3c2[nH]1)S(=O)(=O)c1ccc(C)cc1 [Compound 202]
13,10.8 µM,CCN(Cc1nc2c(N)nc3ccc(Br)cc3c2[nH]1)C(=O)C(C)C [Compound 203]
14,6.7 µM,CCN(Cc1nc2c(N)nc3ccc(Br)cc3c2[nH]1)C(=O)c1ccccc1 [Compound 204]
15,36 µM,CCN(Cc1nc2c(N)nc3ccccc3c2n1CCC(=O)N1CCOCC1)C(=O)OC(C)(C)C [Compound 205]
16,73 µM,CCN(Cc1nc2c(N)nc3ccc(-n4cccn4)cc3c2[nH]1)C(C)=O [Compound 207]
17,22 µM,CCN(Cc1nc2c(N)nc3cc(Br)ccc3c2n1CCCC(=O)N1CCN(C)CC1)C(C)=O [Compound 209]
18,61 µM,CCN(Cc1nc2c(N)nc3cc(Br)ccc3c2n1CCCC(=O)NC)C(C)=O [Compound 210]
19,40 µM,CCN(Cc1nc2c(N)nc3ccccc3c2n1CCC(=O)N1CCN(C(=O)OC(C)(C)C)CC1)C(=O)OC(C)(C)C [Compound 211]
20,85 µM,CCN(Cc1nc2c(N)nc3ccccc3c2n1CCC(=O)N1CCN(C(=O)OC(C)(C)C)CC1)C(C)=O [Compound 212]
21,17.6 µM,CCN(Cc1nc2c(N)nc3cc(Br)ccc3c2n1CCCC(=O)N(C)C)C(C)=O [Compound 213]
22,51.5 µM,CCN(Cc1nc2c(N)nc3cc(Br)ccc3c2n1CCCC(=O)N1CCOCC1)C(C)=O [Compound 214]
